Measurements published in patent US10941152B2, “Pyrazole compounds as modulators of FSHR and uses thereof” (TOCOPHERX, INC., priority 2014, dated 2021).

Experiments:
[1] = biological target: T1, follicle-stimulating hormone (FSH) receptor (Rattus norvegicus, UniProt P20395); assay: Rat granulosa EC50 FSH (Assay B); assay type: cell-based
T1 construct: endogenous in cells; host or cells: rat granulosa cells
T1 sequence (P20395 18-692): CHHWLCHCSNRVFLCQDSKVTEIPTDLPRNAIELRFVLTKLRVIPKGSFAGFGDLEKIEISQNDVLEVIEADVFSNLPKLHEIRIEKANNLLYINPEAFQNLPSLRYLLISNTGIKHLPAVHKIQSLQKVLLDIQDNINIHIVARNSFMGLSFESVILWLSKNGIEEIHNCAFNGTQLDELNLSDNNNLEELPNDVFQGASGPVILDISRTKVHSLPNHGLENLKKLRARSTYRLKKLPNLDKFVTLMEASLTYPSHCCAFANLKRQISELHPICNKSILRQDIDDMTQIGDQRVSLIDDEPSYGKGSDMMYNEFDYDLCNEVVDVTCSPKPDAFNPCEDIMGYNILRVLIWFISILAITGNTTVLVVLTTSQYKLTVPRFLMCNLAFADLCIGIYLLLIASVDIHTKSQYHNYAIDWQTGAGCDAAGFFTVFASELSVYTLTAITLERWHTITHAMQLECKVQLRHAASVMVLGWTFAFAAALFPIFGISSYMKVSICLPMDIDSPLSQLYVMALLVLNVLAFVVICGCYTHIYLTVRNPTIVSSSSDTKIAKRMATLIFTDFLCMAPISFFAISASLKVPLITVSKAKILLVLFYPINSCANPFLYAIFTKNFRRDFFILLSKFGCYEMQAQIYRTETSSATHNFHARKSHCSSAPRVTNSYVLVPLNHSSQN
Procedure: Example 25. Rat granulosa EC50 FSH (Assay B)
The assay was performed pursuant to the teaching of Yanofsky et al. (2006) Allosteric activation of the follicle-stimulating hormone (FSH) receptor by selective, nonpeptide agonists (JBC 281(19): 13226-13233, which is incorporated by reference in the disclosure of the invention).

FSHR = biological target: T2, FSHR (Homo sapiens, UniProt P23945); assay: EC50 of cyclic AMP production in CHO FSHR cells + EC20 FSH (Assay A); assay type: cell-based; settings: cyclic AMP production in CHO FSHR cells + EC20 FSH (0.265 pM), HTRF
T2 construct: expressed in transfected cells; host or cells: CHO (Cho-FSHR-LUC-1-1-43)
T2 sequence (P23945 18-695): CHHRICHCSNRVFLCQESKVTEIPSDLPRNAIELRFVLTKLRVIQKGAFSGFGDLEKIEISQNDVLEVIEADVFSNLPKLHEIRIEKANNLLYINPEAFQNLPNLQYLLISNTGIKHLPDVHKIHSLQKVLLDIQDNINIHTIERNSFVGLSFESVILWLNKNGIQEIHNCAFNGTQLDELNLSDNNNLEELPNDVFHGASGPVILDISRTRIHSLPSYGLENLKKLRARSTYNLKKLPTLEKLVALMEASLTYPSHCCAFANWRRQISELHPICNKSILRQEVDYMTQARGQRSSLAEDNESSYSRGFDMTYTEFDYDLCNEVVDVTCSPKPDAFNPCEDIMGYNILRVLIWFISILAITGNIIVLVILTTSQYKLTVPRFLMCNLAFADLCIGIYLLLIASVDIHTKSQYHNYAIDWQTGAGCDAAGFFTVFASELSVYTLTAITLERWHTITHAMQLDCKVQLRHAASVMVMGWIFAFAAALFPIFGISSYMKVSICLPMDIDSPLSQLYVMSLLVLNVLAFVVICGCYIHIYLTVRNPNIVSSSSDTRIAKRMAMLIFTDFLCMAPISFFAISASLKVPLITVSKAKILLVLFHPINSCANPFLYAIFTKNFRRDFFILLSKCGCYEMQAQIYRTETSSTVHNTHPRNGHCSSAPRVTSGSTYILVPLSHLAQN
Summary of the method: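 CHO cells expressing FSHR, stimulated 1 h at 37° C with compound plus EC20 FSH (0.265 pM final) and 200 μM IBMX. cAMP measured by HTRF (665/620 nm ratio) after 1 h at room temperature; effect expressed relative to maximum response of FSH standard.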

Structure (SMILES)	EC50 [1]	EC50 (FSHR)
[2H]C([2H])([2H])Oc1cc(Cl)cc(-n2nc(C(=O)N(C)C(C)(C)C)c3c2-c2cc(-c4cncc(C#N)c4)c(OC([2H])([2H])[2H])cc2OC3)c1 [Compound 36, N-tert-butyl-1-(3-chloro-5-D3-methoxyphenyl)-8-(5-cyanopyridin-3-yl)-7-D3-methoxy-N-methyl-1H,4H-chromeno[4,3-c]pyrazole-3-carboxamide]	10 to 100 nM	< 10 nM
COc1cc(OC)cc(-n2nc(C(=O)N(C)C(C)(C)C)c3c2-c2cc(-c4cc[nH]c4)c(OC)cc2OC3)c1 [Compound 38]	101 to 500 nM	10 to 100 nM
COc1cc(OC)cc(-n2nc(C(=O)N3CC[S+]([O-])CC3(C)C)c3c2-c2cc(-c4ccn(C)n4)c(OC)cc2OC3)c1 (stereo not shown) [Compound 39, (1-(3,5-dimethoxyphenyl)-7-methoxy-8-(1-methyl-1H-pyrazol-3-yl)-1,4-dihydrochromeno[4,3-c]pyrazol-3-yl)-(S-oxo-3,3-dimethylthiomorpholino)methanone]	101 to 500 nM	10 to 100 nM
COc1cc(OC)cc(-n2nc(C(=O)N3CC[S+]([O-])CC3(C)C)c3c2-c2cc(-c4cccnc4F)c(OC)cc2OC3)c1 (stereo not shown) [Compound 40, (1-(3,5-dimethoxyphenyl)-8-(2-fluoropyridin-3-yl)-7-methoxy-1,4-dihydrochromeno[4,3-c]pyrazol-3-yl)(S-oxo-3,3-dimethylthiomorpholino)methanone]	10 to 100 nM	< 10 nM
COc1cc(OC)cc(-n2nc(C(=O)N3CCOCC3(C)C)c3c2-c2cc(-c4cccnc4F)c(OC)cc2OC3)c1 [Compound 42, (1-(3,5-dimethoxyphenyl)-8-(2-fluoropyridin-3-yl)-7-methoxy-1,4-dihydrochromeno[4,3-c]pyrazol-3-yl)(3,3-dimethylmorpholino)methanone]	10 to 100 nM	< 10 nM
COc1cc2c(cc1-c1ccn(C)n1)-c1c(c(C(=O)N3CCOCC3(C)C)nn1-c1cc(F)cc(F)c1)CO2 [Compound 51, (1-(3,5-difluorophenyl)-7-methoxy-8-(1-methyl-1H-pyrazol-3-yl)-1,4-dihydrochromeno[4,3-c]pyrazol-3-yl)(3,3-dimethylmorpholino)methanone]	101 to 500 nM	10 to 100 nM
COc1cc(F)cc(-n2nc(C(=O)N(C)C(C)(C)C)c3c2-c2cc(-c4ccn(C)n4)c(OC)cc2OC3)c1 [Compound 52, N-tert-butyl-1-(3-fluoro-5-methoxyphenyl)-7-methoxy-N-methyl-8-(1-methyl-1H-pyrazol-3-yl)-1,4-dihydrochromeno[4,3-c]pyrazole-3-carboxamide]	101 to 500 nM	10 to 100 nM
COc1cc(F)cc(-n2nc(C(=O)N3CCOCC3(C)C)c3c2-c2cc(-c4ccn(C)n4)c(OC)cc2OC3)c1 [Compound 53, (3,3-dimethylmorpholino)(1-(3-fluoro-5-methoxyphenyl)-7-methoxy-8-(1-methyl-1H-pyrazol-3-yl)-1,4-dihydrochromeno[4,3-c]pyrazol-3-yl)methanone]	101 to 500 nM	10 to 100 nM
COc1cc(F)cc(-n2nc(C(=O)N(C)C(C)(C)C)c3c2-c2cc(-c4cncc(C#N)c4)c(OC)cc2OC3)c1 [Compound 54, N-tert-butyl-8-(5-cyanopyridin-3-yl)-1-(3-fluoro-5-methoxyphenyl)-7-methoxy-N-methyl-1,4-dihydrochromeno[4,3-c]pyrazole-3-carboxamide]	10 to 100 nM	< 10 nM
COc1cc2c(cc1-c1cccnc1F)-c1c(c(C(=O)N(C)C(C)(C)C)nn1-c1ccsc1)CO2 [Compound 55, N-tert-butyl-8-(2-fluoropyridin-3-yl)-7-methoxy-N-methyl-1-(thiophen-3-yl)-1,4-dihydrochromeno[4,3-c]pyrazole-3-carboxamide]	10 to 100 nM	< 10 nM

More lines, now with the values ahead:

EC50 [1]	EC50 (FSHR)	Structure (SMILES)
> 500 nM	10 to 100 nM	COc1cc(OC)cc(-n2nc(C(=O)N(C)C(C)(C)C)c3c2-c2cc(-c4ccn(C)n4)c(OC)cc2OC3)c1 [Compound 37, N-tert-butyl-1-(3,5-dimethoxyphenyl)-7-methoxy-N-methyl-8-(1-methyl-1H-pyrazol-3-yl)-1,4-dihydrochromeno[4,3-c]pyrazole-3-carboxamide]
101 to 500 nM	10 to 100 nM	COc1cc(OC)cc(-n2nc(C(=O)N3CC[S+]([O-])CC3(C)C)c3c2-c2cc(-c4ccccn4)c(OC)cc2OC3)c1 (stereo not shown) [Compound 41, (1-(3,5-dimethoxyphenyl)-7-methoxy-8-(pyridin-2-yl)-1,4-dihydrochromeno[4,3-c]pyrazol-3-yl)(S-oxo-3,3-dimethylthiomorpholino)methanone]
10 to 100 nM	< 10 nM	COc1cc(OC)cc(-n2nc(C(=O)N3CCOCC3(C)C)c3c2-c2cc(-c4cncc(C)c4)c(OC)cc2OC3)c1 [Compound 43, (1-(3,5-dimethoxyphenyl)-7-methoxy-8-(5-methylpyridin-3-yl)-1,4-dihydrochromeno[4,3-c]pyrazol-3-yl)(3,3-dimethylmorpholino)methanone]
10 to 100 nM	< 10 nM	COc1cc(OC)cc(-n2nc(C(=O)N3CCOCC3(C)C)c3c2-c2cc(-c4cncc(C#N)c4)c(OC)cc2OC3)c1 [Compound 44, 5-(1-(3,5-dimethoxyphenyl)-3-(3,3-dimethylmorpholine-4-carbonyl)-7-methoxy-1,4-dihydrochromeno[4,3-c]pyrazol-8-yl)nicotinonitrile]
101 to 500 nM	10 to 100 nM	COc1cc(OC)cc(-n2nc(C(=O)N(C)C(C)(C)C)c3c2-c2cc(-c4ccccn4)c(OC)cc2OC3)c1 [Compound 46, N-tert-butyl-1-(3,5-dimethoxyphenyl)-7-methoxy-N-methyl-8-(pyridin-2-yl)-1,4-dihydrochromeno[4,3-c]pyrazole-3-carboxamide]
101 to 500 nM	10 to 100 nM	COc1cc2c(cc1-c1ccn(C)n1)-c1c(c(C(=O)N(C)C(C)(C)C)nn1-c1cc(F)cc(F)c1)CO2 [Compound 48, N-tert-butyl-1-(3,5-difluorophenyl)-7-methoxy-N-methyl-8-(1-methyl-1H-pyrazol-3-yl)-1,4-dihydrochromeno[4,3-c]pyrazole-3-carboxamide]
10 to 100 nM	< 10 nM	COc1cc2c(cc1-c1cncc(C#N)c1)-c1c(c(C(=O)N3CC[S+]([O-])CC3(C)C)nn1-c1cc(F)cc(F)c1)CO2 (stereo not shown) [Compound 49]
101 to 500 nM	< 10 nM	COc1cc2c(cc1-c1cncc(C#N)c1)-c1c(c(C(=O)N3CCC(O)CC3(C)C)nn1-c1cc(F)cc(F)c1)CO2 (stereo not shown) [Compound 50, 5-(1-(3,5-difluorophenyl)-3-(4-hydroxy-2,2-dimethylpiperidine-1-carbonyl)-7-methoxy-1,4-dihydrochromeno[4,3-c]pyrazol-8-yl)nicotinonitrile]
101 to 500 nM	10 to 100 nM	COc1cc2c(cc1-c1ccn(C)n1)-c1c(c(C(=O)N3CC[S+]([O-])CC3(C)C)nn1-c1ccsc1)CO2 (stereo not shown) [Compound 56, (1-(thiophen-3-yl)-7-methoxy-8-(1-methyl-1H-pyrazol-3-yl)-1,4-dihydrochromeno[4,3-c]pyrazol-3-yl)(S-oxo-3,3-dimethylthiomorpholino)methanone]
101 to 500 nM	10 to 100 nM	COc1cc2c(cc1-c1ccn(C)n1)-c1c(c(C(=O)N3CCC(O)CC3(C)C)nn1-c1ccsc1)CO2 (stereo not shown) [Compound 57, (4-hydroxy-2,2-dimethylpiperidin-1-yl)(7-methoxy-8-(1-methyl-1H-pyrazol-3-yl)-1-(thiophen-3-yl)-1,4-dihydrochromeno[4,3-c]pyrazol-3-yl)methanone]
